From patent publication US20130338130A1 (priority 2009, published 2013)

Columns and labels:
[1] = test system: ATCC strain 43300 Staphylococcus aureus; assay: MRSA survival in MSM and 6 μg/ml oxacillin or methicillin, 24, 48, 120 hours (Example 4)
Protocol: The growth periods tested were 24 hours, 48 hours and 5 days.
USP<51> Antimicrobial Effectiveness protocol was used as the template experimental paradigm. […] All concentrations were plated out to the 10^−7 dilutions to ascertain cfu/ml.
Material was calculated on a 10 ml volume. Sterile oxacillin or methicillin was added to each experimental condition daily at 300 μl from a 30 mg/10 ml concentration giving it an initial final concentration of 6 μg/ml.
All tubes were inoculated with a dilution of MRSA giving a final level of colony forming units of 2.13×10^6/ml (Log=6.3). The tubes were incubated at 25° C. and mixed periodically. Plating was done at 24 hours, 48 hours and 5 days. Each condition was plated by diluting 1 ml of growth material into 9 ml of MLB diluent broth. This mixture was serial diluted down to 10^−7, and 1 ml placed in a sterile petri dish at each dilution point. 20 mls of TSA was added to each dilution, swirled and allowed to solidify. All dilutions were placed in a 35° C. incubator for 24 hours. Bacterial colonies on each plate were counted and colony counts changed into log format. A positive and negative control was ascertained.

[2] = test system: ATCC strain 43300 Staphylococcus aureus; assay: MRSA survival in MSM and oxacillin, simulated course of treatment (Example 3); conditions: for survival (Log cfu/ml): 6 μg/ml oxacillin added daily + MSM (% in label)
Protocol: After 24 hours, another 6 μg/ml oxacillin was added to the incubations, bringing the total amount of oxacillin added to 12 μg/ml. […] This experimental paradigm simulates the repeated application of antibiotic that a subject would receive over a course of treatment.
USP<51> Antimicrobial Effectiveness protocol was used as the template experimental paradigm. […] All concentrations were plated out to the 10^−7 dilutions to ascertain cfu/ml. […] This concentration is the industry standard for determining MRSA resistance in clinical applications. An additional 6 μg/ml oxacillin was added daily.
Material was calculated on a 10 ml volume. Sterile oxacillin was added to each experimental condition daily at 300 μl from a 30 mg/10 ml concentration giving it a final concentration of 6 μg/ml.
All tubes were inoculated at a dilution of MRSA giving a final concentration of colony forming units of 9.14×10^5/ml (Log=5.96). The tubes were incubated at 25° C. and mixed periodically. Plating was done at 48 hours and 7 days. […] These were serial diluted down to 10^−7 with 1 ml placed in a sterile petri dish at each dilution point. 20 mls of TSA was added to each dilution and swirled and allowed to solidify. All dilutions were placed in a 35° C. incubator for 24 hours. Plates were counted and colony counts changed into log format. A positive and negative control was ascertained.

[3] = 6 μg/ml methicillin + MSM (initial % in label), 48 hours, listed as 16% MSM
[4] = 6 μg/ml oxacillin + MSM (initial % in label), 48 hours, listed as 8% MSM
[5] = 6 μg/ml oxacillin + MSM (initial % in label), 48 hours, listed as 16% MSM

CS(C)(=O)=O [MSM, Methylsulfonylmethane]
average log reduction in cfu/ml [1, 3]: 2.1 log | survival (Log cfu/ml) [1, 3]: 4.17 Log cfu/ml | survival (Log cfu/ml) ([1]; 6 μg/ml methicillin + MSM (initial % in label), 120 hours, listed as 5% MSM): TNTC | survival (Log cfu/ml) ([1]; 6 μg/ml methicillin + MSM (initial % in label), 120 hours, listed as 8% MSM): TNTC | survival (Log cfu/ml) ([1]; 6 μg/ml methicillin + MSM (initial % in label), 120 hours, listed as 10% MSM): TNTC | survival (Log cfu/ml) ([1]; 6 μg/ml methicillin + MSM (initial % in label), 120 hours, listed as 12% MSM): 4.20 Log cfu/ml | survival (Log cfu/ml) ([1]; 6 μg/ml methicillin + MSM (initial % in label), 120 hours, listed as 13% MSM): 2.80 Log cfu/ml | survival (Log cfu/ml) ([1]; 6 μg/ml methicillin + MSM (initial % in label), 120 hours, listed as 14% MSM): 2.90 Log cfu/ml | survival (Log cfu/ml) ([1]; 6 μg/ml methicillin + MSM (initial % in label), 120 hours, listed as 15% MSM): 2.80 Log cfu/ml | survival (Log cfu/ml) ([1]; 6 μg/ml methicillin + MSM (initial % in label), 120 hours, listed as 16% MSM): 2.80 Log cfu/ml | Log reduction in cfu/ml ([1]; 6 μg/ml methicillin + initial 13-16% MSM, 120 hours): ~3.5 log | survival (Log cfu/ml) ([1]; 6 μg/ml oxacillin + MSM (initial % in label), 48 Hours, listed as 5% MSM): 5.20 Log cfu/ml | survival (Log cfu/ml) ([1]; 6 μg/ml oxacillin + MSM (initial % in label), 48 Hours, listed as 10% MSM): 4.20 Log cfu/ml | survival (Log cfu/ml) ([1]; 6 μg/ml oxacillin + MSM (initial % in label), 48 Hours, listed as 12% MSM): 4.30 Log cfu/ml | survival (Log cfu/ml) ([1]; 6 μg/ml oxacillin + MSM (initial % in label), 48 Hours, listed as 13% MSM): 4.20 Log cfu/ml | survival (Log cfu/ml) ([1]; 6 μg/ml oxacillin + MSM (initial % in label), 48 Hours, listed as 14% MSM): 4.40 Log cfu/ml | survival (Log cfu/ml) ([1]; 6 μg/ml oxacillin + MSM (initial % in label), 48 Hours, listed as 15% MSM): 4.40 Log cfu/ml | survival (Log cfu/ml) ([1]; 6 μg/ml oxacillin + MSM (initial % in label), 24 hours, listed as 5% MSM): 4.90 Log cfu/ml | survival (Log cfu/ml) ([1]; 6 μg/ml oxacillin + MSM (initial % in label), 24 hours, listed as 8% MSM): 5.00 Log cfu/ml | survival (Log cfu/ml) ([1]; 6 μg/ml oxacillin + MSM (initial % in label), 24 hours, listed as 10% MSM): 5.00 Log cfu/ml | survival (Log cfu/ml) ([1]; 6 μg/ml oxacillin + MSM (initial % in label), 24 hours, listed as 12% MSM): 5.20 Log cfu/ml | survival (Log cfu/ml) ([1]; 6 μg/ml oxacillin + MSM (initial % in label), 24 hours, listed as 13% MSM): 5.00 Log cfu/ml | survival (Log cfu/ml) ([1]; 6 μg/ml oxacillin + MSM (initial % in label), 24 hours, listed as 14% MSM): 5.20 Log cfu/ml | survival (Log cfu/ml) ([1]; 6 μg/ml oxacillin + MSM (initial % in label), 24 hours, listed as 15% MSM): 5.23 Log cfu/ml | survival (Log cfu/ml) ([1]; 6 μg/ml oxacillin + MSM (initial % in label), 24 hours, listed as 16% MSM): 5.25 Log cfu/ml | average log reduction in cfu/ml [1, 4]: 2.7 log | survival (Log cfu/ml) [1, 4]: 3.60 Log cfu/ml | average log reduction in cfu/ml [1, 5]: 2.1 log | survival (Log cfu/ml) [1, 5]: 4.17 Log cfu/ml | survival (Log cfu/ml) ([1]; 6 μg/ml oxacillin + MSM (initial % in label), 120 hours, listed as 5% MSM): TNTC | survival (Log cfu/ml) ([1]; 6 μg/ml oxacillin + MSM (initial % in label), 120 hours, listed as 8% MSM): TNTC | survival (Log cfu/ml) ([1]; 6 μg/ml oxacillin + MSM (initial % in label), 120 hours, listed as 10% MSM): TNTC | survival (Log cfu/ml) ([1]; 6 μg/ml oxacillin + MSM (initial % in label), 120 hours, listed as 12% MSM): TNTC | survival (Log cfu/ml) ([1]; 6 μg/ml oxacillin + MSM (initial % in label), 120 hours, listed as 13% MSM): TNTC | survival (Log cfu/ml) ([1]; 6 μg/ml oxacillin + MSM (initial % in label), 120 hours, listed as 14% MSM): 3.00 Log cfu/ml | survival (Log cfu/ml) ([1]; 6 μg/ml oxacillin + MSM (initial % in label), 120 hours, listed as 15% MSM): 3.00 Log cfu/ml | survival (Log cfu/ml) ([1]; 6 μg/ml oxacillin + MSM (initial % in label), 120 hours, listed as 16% MSM): 3.00 Log cfu/ml | Log reduction in cfu/ml ([1]; 6 μg/ml oxacillin + initial 14-16% MSM, 120 hours): ~3.3 log | survival (Log cfu/ml) ([2]; 48 hours, inoculum Log=5.96, listed as 5% MSM): 7.0 Log cfu/ml | survival (Log cfu/ml) ([2]; 48 hours, inoculum Log=5.96, listed as 8% MSM): 4.0 Log cfu/ml | survival (Log cfu/ml) ([2]; 48 hours, inoculum Log=5.96, listed as 10% MSM): 4.6 Log cfu/ml | survival (Log cfu/ml) ([2]; 48 hours, inoculum Log=5.96, listed as 12% MSM): 3.8 Log cfu/ml | survival (Log cfu/ml) ([2]; 48 hours, inoculum Log=5.96, listed as 13% MSM): 3.8 Log cfu/ml | survival (Log cfu/ml) ([2]; 48 hours, inoculum Log=5.96, listed as 14% MSM): 4.0 Log cfu/ml | survival (Log cfu/ml) ([2]; 48 hours, inoculum Log=5.96, listed as 15% MSM): 4.1 Log cfu/ml | survival (Log cfu/ml) ([2]; 48 hours, inoculum Log=5.96, listed as 16% MSM): 5.3 Log cfu/ml | survival (Log cfu/ml) ([2]; 7 days, listed as 5% MSM): 7.9 Log cfu/ml | survival (Log cfu/ml) ([2]; 7 days, listed as 8% MSM): 7.6 Log cfu/ml | survival (Log cfu/ml) ([2]; 7 days, listed as 10% MSM): 7.2 Log cfu/ml | survival (Log cfu/ml) ([2]; 7 days, listed as 12% MSM): 7.1 Log cfu/ml | survival (Log cfu/ml) ([2]; 7 days, listed as 13% MSM): 7.2 Log cfu/ml | survival (Log cfu/ml) ([2]; 7 days, listed as 14% MSM): 7.0 Log cfu/ml | survival (Log cfu/ml) ([2]; 7 days, listed as 15% MSM): 6.9 Log cfu/ml | survival (Log cfu/ml) ([2]; 7 days, listed as 16% MSM): 1.0 Log cfu/ml | surviving bacteria ([2]; 6 μg/ml oxacillin added each day, day 7): no surviving bacteria
